Marks after values point to notes of the source that are not given here.
What was measured:
brain of convulsive mice = assay type: in vivo, ICR mice; conditions: carbamazepine 80 mg/kg intragastric daily 7 days; PTZ 80 mg/kg i.p.; n=12
Description: (§1) The mice in each group were given intragastric administration daily, for 7 consecutive days. 30 minutes after the last administration, except for the blank control group, the mice in the other groups were injected intraperitoneally with 80 mg/kg of PTZ to induce convulsions in the mice. Each mouse was placed in a separate cage for observation for 30 minutes, and behavioral changes such as stages of seizure, duration, latent period and mortality rate of the mice were recorded.
After completing the behavioral observation determined by the above relevant indicators, experiments were conducted to study the effect of the composition on the contents of NO, Na-K-ATP, Asp, and 5-HT in the brain of convulsive mice. After the behavioral observation was over, the mice were immediately executed, and the brain tissues and the required organs were quickly taken out, weighed, and then the brain tissues were placed in liquid nitrogen and stored in a refrigerator at -80° C. Blood stains on the surface were washed off with pre-cooled saline before measurement. The tissues were then weighed and PBS was added in a volume ratio of 1:9 to fully homogenize the brain tissues. The homogenate was centrifuged at 3000 r/min for 20 minutes. The supernatant was collected as samples for subsequent ELISA test to detect the content of GABA, Glu, NO, Na^+-K^+-ATP, Asp, 5-HT, etc.

[1] = test system: PTZ-induced epileptic mice; assay: PTZ-induced epilepsy in mice: seizure stage (Racine scale), convulsions, mortality; assay type: in vivo, ICR mice; conditions: carbamazepine 80 mg/kg intragastric daily 7 days; PTZ 80 mg/kg i.p.; n=12
From the text: As known to those skilled in the art, pentylenetetrazole (PTZ) is a powerful seizure-inducing agent, and its epileptic model is considered to be one of the ideal models for systemic tonic seizures. PTZ itself has no special neurotoxicity, so it is widely used in the study of epilepsy pathogenesis and the screening of anti-epileptic drugs. When PTZ induces epilepsy in mice, its seizures are characterized by clonic seizures in the initial stage, followed by systemic tonic seizures soon afterwards. PTZ is a central nervous system stimulant that acts on GABA-GABAA receptor system. It promotes the enhancement of the excitatory synaptic facilitation and reduces the release of GABA. This in turn reduces the inhibitory ability, increases the sensitivity to convulsions, and increases the excitability of the central nervous system, thereby inducing EP. According to its seizure characteristics, in this experiment, these two seizure forms were used as indicators and combined with the current Racine scale to analyze their epileptic behavior.
as §1
The Racine scale (see: https://en.wikipedia.org/wiki/Racine_stages) was used to determine the level of epilepsy in mice: • Stage 0: No response; • Stage I: Wet dog shakes, facial twitches, clonus, tremors (such as eye blinking, moustache movements, rhythmic chewing, etc.); • Stage II: Stage I plus rhythmic nodding; • Stage III: Stage II plus forelimb clonus, but no rearing; • Stage IV: Rearing and oblique bilateral falling, or rearing with forelimb clonus; and • Stage V: Imbalance, tipping, twitching of limbs, generalized clonus, generalized tonic seizures, falling, rolling, and loss of postural control.

Structure (SMILES): NC(=O)N1c2ccccc2C=Cc2ccccc21 [Carbamazepine]
- 5-HT content in the brain (brain of convulsive mice): 14.6 ± 2.6 ng/L
- NO content in the brain (brain of convulsive mice): 26.4 ± 2.5 µmol/L
- Na-K-ATP content in the brain (brain of convulsive mice): 192.1 ± 5.7 ng/L
- Duration of convulsions [1]: 165.3 ± 32.5 s
- Latent period of convulsions [1]: 365.2 ± 25.6 s
- Morality rates [1]: 16.7%
- Number of convulsions [1]: 8
- number of seizures, Stage I [1]: 0.9±0.4
- number of seizures, Stage II [1]: 1.4±0.8
- number of seizures, Stage III [1]: 1.5±0.8
- number of seizures, Stage IV [1]: 2.1±1.8
- number of seizures, Stage V [1]: 6.3±2.1
- seizure behavior: number of mice at Stage 0 [1]: 1
- seizure behavior: number of mice at Stage I [1]: 3
- seizure behavior: number of mice at Stage II [1]: 3
- seizure behavior: number of mice at Stage III [1]: 2
- seizure behavior: number of mice at Stage IV [1]: 2
- seizure behavior: number of mice at Stage V [1]: 1*
